Reference: patent US11304926B2, “Application of transient receptor potential cation channel TRPV3 in developing drug for preventing or treating psoriasis” (CHINA PHARMACEUTICAL UNIVERSITY, priority 2019, dated 2022)
Entries after “also recorded” stand apart in the source; their conditions may differ.

Columns and labels:
Type in all cases: in vivo
[1] = tested on: mouse psoriasis model induced by 5% IMQ; test: Neutrophil infiltration (Ly6G+ cells, immunofluorescence) of mouse psoriasis model; conditions: 5% IMQ model
[2] = tested on: mouse psoriasis model induced by 5% IMQ; test: mRNA level of related inflammatory factors (qPCR) at lesion of mouse psoriasis model; conditions: 5% IMQ model
Protocol: 20 mg of skin tissues were grinded to powder with liquid nitrogen, added with 0.5 mL of Trizol (Vazyme, article number: R401-01), and incubated on ice for 10 minutes. A split product was transferred to a 1.5 mL RNase-free centrifuge tube, added with 100 μL of chloroform, then shaken vigorously for 15 seconds, stood on ice for 2 minutes, and then centrifuged at 4° C. at 12000 rpm for 10 minutes. A water phase on an upper layer was absorbed into a new 1.5 mL RNase-free centrifuge tube, added with the same amount of isopropanol to precipitate RNA, and then centrifuged at 4° C. at 12000 rpm for 10 minutes. A supernatant was discarded, 500 μL of 75% ethyl alcohol prepared with DEPC water was added to wash the RNA precipitate, and then centrifuged at 4° C. at 12000 rpm for 5 minutes. A supernatant was discarded, the RNA precipitate was slightly dried, and the RNA was dissolved with 10 μL of DEPC water. 1 μL of the mixture was subjected to concentration detection by a detection instrument which was Nano-100 ultra-micro spectrophotometer (Hangzhou Aosheng Instrument Co., Ltd., article number: AS-11010). Another 500 ng of the RNA was subjected to a reverse transcription reaction, which was operated according to instructions of HiScript® II One Step RT-PCR Kit (Vazyme, article number: P611-01). A reverse transcription product was stored at −20° C. for later use. […]

[3] = tested on: mouse psoriasis model induced by 5% IMQ; test: PASI score of mouse psoriasis model induced by imiquimod under drug intervention; conditions: for PASI score: n = 8, mean ± SD
Source text: 16 C57BL/6 mice, with half male and half female were purchased from the Experimental Animal Center of Nanjing Medical University, wherein weights of the mice ranged from 18 g to 20 g. Back hair of the mice was shaved off, and then the mice were randomly divided into 2 groups (8 mice in each group) according to male and female genders. Before experiment, the mice were placed in a quiet environment kept away from strong light for 3 days to adapt to the environment, a ratio of an illuminating time to a dark time was 1:1, a room temperature was controlled at 25° C., a humidity was 55%, and the mice could eat and drink freely. 62.5 mg of 5% (0.1 g:2 g) imiquimod ointment (Zhuhai United Laboratories Co., Ltd.) was continuously applied to back skins of the mice for 6 days to induce a psoriasis-like lesion, while the same dose of vaseline ointment was given to the control group.
The clinical symptom of the mouse psoriasis model was evaluated by a PASI scoring standard from three indicators of erythema, scale and infiltration thickening. The scores ranged from 0 point to 4 points, and a total score was obtained by adding scores of the three indicators. The PASI scoring standard was as follows: 0 point referred to no symptom; 1 point referred to a mild degree; 2 points referred to a moderate degree; 3 points referred to a severe degree; and 4 points referred to an extremely severe degree. The PASI evaluation was conducted daily before the IMQ ointment was applied.
C57BL/6 mice, with half male and half female were purchased from the Experimental Animal Center of Nanjing Medical University, wherein weights of the mice ranged from 18 g to 20 g. The C57BL/6 mice were randomly divided into 4 groups (8 mice in each group). Mouse psoriasis models were established as described in Embodiment 2 (1). […]
Back skins of the mice were photographed and recorded on the 1st, 3rd and 5th days after modeling.

[4] = subcutaneous injection, 5% IMQ model

O=c1cc(-c2ccc(O)cc2)oc2cc(O)c(O)c(O)c12 [Scutellarein]
neutrophil infiltration [1]: obviously reduce
transcription (mRNA level) of the related inflammatory factors [2]: obviously reduce
PASI score ([3]; day 1, 0.1‰ scutellarein s.c. 100 μL twice a day + imiquimod): 0.0 ± 0.0
PASI score ([3]; day 1, 0.2‰ scutellarein s.c. 100 μL twice a day + imiquimod): 0.0 ± 0.0
PASI score ([3]; day 2, 0.1‰ scutellarein s.c. 100 μL twice a day + imiquimod): 0.5 ± 0.6
PASI score ([3]; day 2, 0.2‰ scutellarein s.c. 100 μL twice a day + imiquimod): 0.0 ± 0.0
PASI score ([3]; day 3, 0.1‰ scutellarein s.c. 100 μL twice a day + imiquimod): 1.8 ± 0.9
PASI score ([3]; day 3, 0.2‰ scutellarein s.c. 100 μL twice a day + imiquimod): 0.5 ± 0.6
PASI score ([3]; day 4, 0.1‰ scutellarein s.c. 100 μL twice a day + imiquimod): 1.8 ± 1.0
PASI score ([3]; day 4, 0.2‰ scutellarein s.c. 100 μL twice a day + imiquimod): 0.8 ± 0.9
PASI score ([3]; day 5, 0.1‰ scutellarein s.c. 100 μL twice a day + imiquimod): 3.0 ± 0.8
PASI score ([3]; day 5, 0.2‰ scutellarein s.c. 100 μL twice a day + imiquimod): 2.0 ± 1.2
occurrence of the lesion induced by imiquimod [3, 4]: delay occurrence of the lesion
psoriasis-like lesion on the back skins of the mice (appearance) [3, 4]: could relieve the psoriasis-like lesion; also recorded: can improve the lesion; also recorded: significantly relieve
